How the values were obtained:
[1] = tested on: MGC-803; test: Antiproliferative activity against human MGC803 cells incubated for 48 hrs and measured after 4 hrs by MTT assay; type: functional, cell-based
[2] = tested on: SGC-7901; test: Antiproliferative activity against human SGC7901 cells incubated for 48 hrs and measured after 4 hrs by MTT assay; type: functional, cell-based
[3] = tested on: A549; test: Antiproliferative activity against human A549 cells incubated for 48 hrs and measured after 4 hrs by MTT assay; type: functional, cell-based
[4] = tested on: MCF7; test: Antiproliferative activity against human MCF7 cells incubated for 48 hrs and measured after 4 hrs by MTT assay; type: functional, cell-based
[5] = tested on: PC-3; test: Antiproliferative activity against human PC3 cells incubated for 48 hrs and measured after 4 hrs by MTT assay; type: functional, cell-based
[6] = Cytotoxicity against human IOSE-144 cells incubated for 48 hrs and measured after 4 hrs by MTT assay; type: cell-based

Row | IC50 [1] [µM] | IC50 [2] [µM] | IC50 [3] [µM] | IC50 [4] [µM] | IC50 [5] [µM] | Compound | IC50 [6] [µM]
1 | 22.2 | 28.2 | 19.7 | 22.2 | 30.8 | CC(C)(O)CCC[C@@](C)(O)[C@H]1CC[C@]2(C)[C@@H]1[C@H](O)C[C@@H]1[C@@]3(C)C/C(=C\c4ccc([N+](=O)[O-])cc4)C(=O)C(C)(C)[C@@H]3CC[C@]12C | > 100
2 | 11.3 | 17.6 | 16.7 | 12.7 | 14.1 | CC(C)(O)CCC[C@@](C)(O)[C@H]1CC[C@]2(C)[C@@H]1[C@H](O)C[C@@H]1[C@@]3(C)C/C(=C\c4cccc([N+](=O)[O-])c4)C(=O)C(C)(C)[C@@H]3CC[C@]12C | > 100
3 | 13.3 | 31.8 | 55.6 | 14.8 | 49.5 | CC(C)(O)CCC[C@@](C)(O)[C@H]1CC[C@]2(C)[C@@H]1[C@H](O)C[C@@H]1[C@@]3(C)C/C(=C\c4cccc(F)c4)C(=O)C(C)(C)[C@@H]3CC[C@]12C | > 100
4 | 13.8 | 21.4 | 23.1 | 8.45 | 16.6 | CC(C)(O)CCC[C@@](C)(O)[C@H]1CC[C@]2(C)[C@@H]1[C@H](O)C[C@@H]1[C@@]3(C)C/C(=C\c4ccc(Br)cc4)C(=O)C(C)(C)[C@@H]3CC[C@]12C | > 100
5 | 13.6 | 20.6 | 34.7 | 12.2 | 14.1 | CC(C)(O)CCC[C@@](C)(O)[C@H]1CC[C@]2(C)[C@@H]1[C@H](O)C[C@@H]1[C@@]3(C)C/C(=C\c4cccc(Br)c4)C(=O)C(C)(C)[C@@H]3CC[C@]12C | > 100
6 | 26.1 | > 100 | 38.6 | > 100 | 16.5 | CC(C)(O)CCC[C@@](C)(O)[C@H]1CC[C@]2(C)[C@@H]1[C@H](O)C[C@@H]1[C@@]3(C)C/C(=C\c4ccc(Br)cc4)[C@H](O)C(C)(C)[C@@H]3CC[C@]12C | > 100

The next lines start with the compound.

Row | Compound | IC50 [1] [µM] | IC50 [2] [µM] | IC50 [3] [µM] | IC50 [4] [µM] | IC50 [5] [µM] | IC50 [6] [µM]
7 | CC(C)(O)CCC[C@@](C)(O)[C@H]1CC[C@]2(C)[C@@H]1[C@H](O)C[C@@H]1[C@@]3(C)CC[C@H](N)C(C)(C)[C@@H]3CC[C@]12C | 13.8 | 53.1 | 7.68 | 13.3 | 34 | > 100
8 | CC(C)(O)CCC[C@@](C)(O)[C@H]1CC[C@]2(C)[C@@H]1[C@H](O)C[C@@H]1[C@@]3(C)CC[C@H](OC(=O)C4CCN(C(=O)OC(C)(C)C)CC4)C(C)(C)[C@@H]3CC[C@]12C | 22.2 | 18.2 | 10.8 | 11 | 25.8 | > 100
9 | CC(C)(O)CCC[C@@](C)(O)[C@H]1CC[C@]2(C)[C@@H]1[C@H](O)C[C@@H]1[C@@]3(C)C/C(=C\c4ccc([N+](=O)[O-])cc4)[C@H](O)C(C)(C)[C@@H]3CC[C@]12C | 23.2 | 47.2 | 34.2 | 49.4 | 58.1 | > 100
10 | CC(C)(O)CCC[C@@](C)(O)[C@H]1CC[C@]2(C)[C@@H]1[C@H](O)C[C@@H]1[C@@]3(C)C/C(=C\c4cccc(Br)c4)[C@H](O)C(C)(C)[C@@H]3CC[C@]12C | 18.8 | > 100 | > 100 | > 100 | > 100 | > 100
11 | CC(C)(O)CCC[C@@](C)(O)[C@H]1CC[C@]2(C)[C@@H]1[C@H](O)C[C@@H]1[C@@]3(C)CC[C@H](OC(=O)C4CCCN(C(=O)OC(C)(C)C)C4)C(C)(C)[C@@H]3CC[C@]12C (stereo partly specified) | 22.2 | 22.3 | 22.2 | 26.7 | 23.6 | > 100

From ChEMBL document CHEMBL4376871, “Synthesis and anti-cancer activity studies of dammarane-type triterpenoid derivatives” (Eur J Med Chem, 2020)
